In patent US9567302B2, “Carbamate compounds and of making and using same” (Abide Therapeutics, Inc., priority 2012, dated 2017):

How the values were obtained:
Assay type in all cases: biochemical
Set-up in all cases: from tissue
ABHD6 = biological target: T1, ABHD6 (Mus musculus, UniProt Q8R2Y0); assay: In vitro competitive ABPP, % inhibition at fixed concentration, ABHD6
T1 sequence (Q8R2Y0 1-336): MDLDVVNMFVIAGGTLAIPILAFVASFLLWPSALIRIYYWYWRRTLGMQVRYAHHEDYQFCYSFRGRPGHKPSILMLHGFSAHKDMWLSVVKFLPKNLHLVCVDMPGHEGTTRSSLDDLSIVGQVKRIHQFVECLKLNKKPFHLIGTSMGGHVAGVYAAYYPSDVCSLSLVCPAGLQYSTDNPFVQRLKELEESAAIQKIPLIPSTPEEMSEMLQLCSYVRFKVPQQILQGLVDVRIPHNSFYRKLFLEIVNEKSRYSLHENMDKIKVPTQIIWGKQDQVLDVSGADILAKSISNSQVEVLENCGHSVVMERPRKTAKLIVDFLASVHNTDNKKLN
Procedure: (§1) In Vitro Competitive Activity-Based Protein Profiling.
(§2) Proteomes (mouse brain membrane fraction or cell lysates) (50 μL, 1.0 mg/ml total protein concentration) were preincubated with varying concentrations of inhibitors at 37° C. After 30 min, FP-Rh (1.0 μL, 50 μM in DMSO) was added and the mixture was incubated for another 30 min at 37° C. Reactions were quenched with SDS loading buffer (50 μL—4×) and run on SDS-PAGE. Following gel imaging, serine hydrolase activity was determined by measuring fluorescent intensity of gel bands corresponding to MAGL, ABHD6 and FAAH using ImageJ 1.43u software.

MAGL = biological target: T2, MAGL (Mus musculus, UniProt O35678); assay: In vitro competitive ABPP, % inhibition at fixed concentration, MAGL
T2 sequence (O35678 1-303): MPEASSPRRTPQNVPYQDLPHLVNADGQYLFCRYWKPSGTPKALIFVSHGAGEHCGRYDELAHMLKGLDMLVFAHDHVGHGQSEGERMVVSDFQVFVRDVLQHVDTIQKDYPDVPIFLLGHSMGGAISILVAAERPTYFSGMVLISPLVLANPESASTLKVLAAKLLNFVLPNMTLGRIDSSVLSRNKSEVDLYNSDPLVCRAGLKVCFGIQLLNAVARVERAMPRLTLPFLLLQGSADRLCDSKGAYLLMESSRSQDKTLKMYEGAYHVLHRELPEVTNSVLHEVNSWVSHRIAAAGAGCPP
Procedure: as §1, §2

FAAH = biological target: T3, FAAH (Mus musculus, UniProt O08914); assay: In vitro competitive ABPP, % inhibition at fixed concentration, FAAH
T3 sequence (O08914 1-579): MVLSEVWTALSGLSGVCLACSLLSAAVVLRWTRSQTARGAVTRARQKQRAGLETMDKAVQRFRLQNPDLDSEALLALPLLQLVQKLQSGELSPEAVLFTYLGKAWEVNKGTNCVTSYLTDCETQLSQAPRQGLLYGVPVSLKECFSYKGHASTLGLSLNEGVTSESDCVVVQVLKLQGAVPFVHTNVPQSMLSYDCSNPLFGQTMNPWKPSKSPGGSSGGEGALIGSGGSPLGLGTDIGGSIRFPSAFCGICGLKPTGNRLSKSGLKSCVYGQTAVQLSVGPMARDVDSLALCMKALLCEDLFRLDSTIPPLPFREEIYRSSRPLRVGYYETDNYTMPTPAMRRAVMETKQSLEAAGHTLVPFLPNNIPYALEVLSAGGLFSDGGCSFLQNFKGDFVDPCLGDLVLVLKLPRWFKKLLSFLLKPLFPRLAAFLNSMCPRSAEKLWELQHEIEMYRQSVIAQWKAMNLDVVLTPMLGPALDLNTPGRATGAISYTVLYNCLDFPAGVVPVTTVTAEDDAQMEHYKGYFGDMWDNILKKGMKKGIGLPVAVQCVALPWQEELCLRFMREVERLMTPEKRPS
Procedure: as §1, §2

SMILES: Cc1cc(-c2ccc(CN3CCN(C(=O)ON4C(=O)CCC4=O)CC3)c(C)c2)cc(C)n1 [Example 113, 2,5-Dioxopyrrolidin-1-yl 4-{[4-(2,6-dimethylpyridin-4-yl)-2-methylphenyl]methyl}piperazine-1-carboxylate]
- inhibition at 1 µM (ABHD6): 25 to 75%
- inhibition at 1 µM (MAGL): 25 to 75%
- inhibition at 1 µM (FAAH): < 25%

SMILES: O=C(ON1C(=O)CCC1=O)N1CCN(Cc2ccc(Cl)cc2N2CCC(C(=O)N3CCCC3)CC2)CC1 [Example 116, 2,5-Dioxopyrrolidin-1-yl 4-({4-chloro-2-[4-(pyrrolidine-1-carbonyl)piperidin-1-yl]phenyl}methyl)piperazine-1-carboxylate]
- inhibition at 1 µM (ABHD6): < 25%
- inhibition at 1 µM (MAGL): 25 to 75%
- inhibition at 1 µM (FAAH): < 25%

SMILES: O=C(ON1C(=O)CCC1=O)N1CCN(Cc2ccc(Cl)cc2N2CCn3ncnc3C2)CC1 [Example 117, 2,5-Dioxopyrrolidin-1-yl 4-[(4-chloro-2-{5H,6H,7H,8H-[1,2,4]triazolo[1,5-a]pyrazin-7-yl}phenyl)methyl]piperazine-1-carboxylate]
- inhibition at 1 µM (ABHD6): < 25%
- inhibition at 1 µM (MAGL): 25 to 75%
- inhibition at 1 µM (FAAH): < 25%

SMILES: O=C(ON1C(=O)CCC1=O)N1CCN(Cc2cc(C(F)(F)F)ccc2N2CCOCC2)CC1 [Example 119, 2,5-Dioxopyrrolidin-1-yl 4-{[2-(morpholin-4-yl)-5-(trifluoromethyl)phenyl]methyl}piperazine-1-carboxylate]
- inhibition at 1 µM (ABHD6): 25 to 75%
- inhibition at 1 µM (MAGL): 25 to 75%
- inhibition at 1 µM (FAAH): < 25%

SMILES: O=C(ON1C(=O)CCC1=O)N1CCN(Cc2cc(C(F)(F)F)ccc2N2CCCC2)CC1 [Example 120, 2,5-Dioxopyrrolidin-1-yl 4-{[2-(pyrrolidin-1-yl)-5-(trifluoromethyl)phenyl]methyl}piperazine-1-carboxylate]
- inhibition at 1 µM (ABHD6): 25 to 75%
- inhibition at 1 µM (MAGL): > 75%
- inhibition at 1 µM (FAAH): < 25%

SMILES: O=C(ON1C(=O)CCC1=O)N1CCN(Cc2ccc(Cl)cc2N2CCN3CCC[C@@H]3C2)CC1 [Example 125, 2,5-Dioxopyrrolidin-1-yl 4-({2-[(8aR)-octahydropyrrolo[1,2-a]piperazin-2-yl]-4-chlorophenyl}methyl)piperazine-1-carboxylate]
- inhibition at 1 µM (ABHD6): > 75%
- inhibition at 1 µM (MAGL): > 75%
- inhibition at 1 µM (FAAH): < 25%

SMILES: CS(=O)(=O)N1CCN(C(=O)ON2C(=O)CCC2=O)CC1 [Example 126, 2,5-Dioxopyrrolidin-1-yl 4-methanesulfonylpiperazine-1-carboxylate]
- inhibition at 1 µM (ABHD6): < 25%
- inhibition at 10 µM (ABHD6): < 25%
- inhibition at 1 µM (MAGL): 25 to 75%
- inhibition at 10 µM (MAGL): < 25%
- inhibition at 1 µM (FAAH): < 25%
- inhibition at 10 µM (FAAH): < 25%

SMILES: Cc1ccc(N2CCOCC2)c(CN2CCN(C(=O)ON3C(=O)CCC3=O)CC2)c1 [Example 127, 2,5-Dioxopyrrolidin-1-yl 4-{[5-methyl-2-(morpholin-4-yl)phenyl]methyl}piperazine-1-carboxylate]
- inhibition at 1 µM (ABHD6): 25 to 75%
- inhibition at 1 µM (MAGL): 25 to 75%
- inhibition at 1 µM (FAAH): < 25%

SMILES: Cc1ccc(N2CCCC2)c(CN2CCN(C(=O)ON3C(=O)CCC3=O)CC2)c1 [Example 128, 2,5-Dioxopyrrolidin-1-yl 4-{[5-methyl-2-(pyrrolidin-1-yl)phenyl]methyl}piperazine-1-carboxylate]
- inhibition at 1 µM (ABHD6): < 25%
- inhibition at 1 µM (MAGL): 25 to 75%
- inhibition at 1 µM (FAAH): < 25%

SMILES: Cn1ncc(Br)c1CN1CCN(C(=O)ON2C(=O)CCC2=O)CC1 [Example 135, 2,5-Dioxopyrrolidin-1-yl 4-((4-bromo-1-methyl-1H-pyrazol-5-yl)methyl)piperazine-1-carboxylate]
- inhibition at 1 µM (ABHD6): 25 to 75%
- inhibition at 1 µM (MAGL): 25 to 75%
- inhibition at 1 µM (FAAH): < 25%

SMILES: COc1ccc(-c2cc(CN3CCN(C(=O)ON4C(=O)CCC4=O)CC3)no2)cc1 [Example 136, 2,5-Dioxopyrrolidin-1-yl 4-((5-(4-methoxyphenyl)isoxazol-3-yl)methyl)piperazine-1-carboxylate]
- inhibition at 1 µM (ABHD6): 25 to 75%
- inhibition at 1 µM (MAGL): 25 to 75%
- inhibition at 1 µM (FAAH): < 25%

SMILES: O=C(ON1C(=O)CCC1=O)N1CCN(Cc2cc(-c3ccccc3)on2)CC1 [Example 137, 2,5-Dioxopyrrolidin-1-yl 4-((5-phenylisoxazol-3-yl)methyl)piperazine-1-carboxylate]
- inhibition at 1 µM (ABHD6): 25 to 75%
- inhibition at 1 µM (MAGL): 25 to 75%
- inhibition at 1 µM (FAAH): < 25%

SMILES: Cn1cc(CN2CCN(C(=O)ON3C(=O)CCC3=O)CC2)c(-c2ccccc2Cl)n1 [Example 140, 2,5-Dioxopyrrolidin-1-yl 4-{[3-(2-chlorophenyl)-1-methyl-1H-pyrazol-4-yl]methyl}piperazine-1-carboxylate]
- inhibition at 1 µM (ABHD6): 25 to 75%
- inhibition at 1 µM (MAGL): 25 to 75%
- inhibition at 1 µM (FAAH): < 25%

SMILES: CC(C)n1cc(CN2CCN(C(=O)ON3C(=O)CCC3=O)CC2)c(-c2ccccc2)n1 [Example 141, 2,5-Dioxopyrrolidin-1-yl 4-{[3-phenyl-1-(propan-2-yl)-1H-pyrazol-4-yl]methyl}piperazine-1-carboxylate]
- inhibition at 1 µM (ABHD6): 25 to 75%
- inhibition at 1 µM (MAGL): 25 to 75%
- inhibition at 1 µM (FAAH): < 25%

SMILES: CC(C)n1cc(CN2CCN(C(=O)ON3C(=O)CCC3=O)CC2)c(-c2ccccc2Cl)n1 [Example 142, 2,5-Dioxopyrrolidin-1-yl 4-{[3-(2-chlorophenyl)-1-(propan-2-yl)-1H-pyrazol-4-yl]methyl}piperazine-1-carboxylate]
- inhibition at 1 µM (ABHD6): 25 to 75%
- inhibition at 1 µM (MAGL): 25 to 75%
- inhibition at 1 µM (FAAH): < 25%

SMILES: Cc1cc(CN2CCN(C(=O)ON3C(=O)CCC3=O)CC2)n(C(C)C)n1 [Example 146, 2,5-Dioxopyrrolidin-1-yl 4-{[3-methyl-1-(propan-2-yl)-1H-pyrazol-5-yl]methyl}piperazine-1-carboxylate]
- inhibition at 1 µM (ABHD6): 25 to 75%
- inhibition at 1 µM (MAGL): 25 to 75%
- inhibition at 1 µM (FAAH): < 25%

SMILES: O=C(ON1C(=O)CCC1=O)N1CCN(Cc2cnc3ccccn23)CC1 [Example 147, 2,5-Dioxopyrrolidin-1-yl 4-(imidazo[1,2-a]pyridin-3-ylmethyl)piperazine-1-carboxylate]
- inhibition at 1 µM (ABHD6): < 25%
- inhibition at 1 µM (MAGL): < 25%
- inhibition at 1 µM (FAAH): < 25%

SMILES: O=C(ON1C(=O)CCC1=O)N1CCN(C(c2ccc3c(c2)OC(F)(F)O3)c2ccc3c(c2)OC(F)(F)O3)CC1 [Example 150, 2,5-Dioxopyrrolidin-1-yl 4-[bis(2,2-difluoro-2H-1,3-benzodioxol-5-yl)methyl]piperazine-1-carboxylate]
- inhibition at 10 µM (ABHD6): 25 to 75%
- inhibition at 10 µM (MAGL): > 75%
- inhibition at 10 µM (FAAH): < 25%

SMILES: Cn1ncc2cc(C(c3ccc4c(cnn4C)c3)N3CCN(C(=O)ON4C(=O)CCC4=O)CC3)ccc21 [Example 154, 2,5-dioxopyrrolidin-1-yl 4-(bis(1-methyl-1H-indazol-5-yl)methyl)piperazine-1-carboxylate]
- inhibition at 1 µM (ABHD6): 25 to 75%
- inhibition at 1 µM (MAGL): 25 to 75%
- inhibition at 1 µM (FAAH): < 25%

SMILES: O=C(ON1C(=O)CCC1=O)N1CCN(C(c2cccnc2)c2cccnc2)CC1 [Example 155, 2,5-Dioxopyrrolidin-1-yl 4-(di(pyridin-3-yl)methyl)piperazine-1-carboxylate]
- inhibition at 1 µM (ABHD6): < 25%
- inhibition at 1 µM (MAGL): 25 to 75%
- inhibition at 1 µM (FAAH): < 25%

SMILES: O=C(ON1C(=O)CCC1=O)N1CCN(C(c2ccc3c(c2)OCO3)c2ccc3c(c2)OCO3)CC1 [Example 156, 2,5-Dioxopyrrolidin-1-yl 4-[bis(2H-1,3-benzodioxol-5-yl)methyl]piperazine-1-carboxylate]
- inhibition at 1 µM (ABHD6): 25 to 75%
- inhibition at 1 µM (MAGL): 25 to 75%
- inhibition at 1 µM (FAAH): < 25%
